Source: US20230303561A1, “PYRIMIDINONE DERIVATIVE, PREPARATION METHOD THEREOF AND USE THEREOF IN RESISTING MYCOBACTERIUM TUBERCULOSIS INFECTION” (INSTITUTE OF MEDICINAL BIOTECHNOLOGY, CHINESE ACADEMY OF …, priority 2020, published 2023)
Values after ≈ are worked out from the molar mass of the structure shown. Where two headings read alike, the source gives them in different places.

Test system: MTB H37Rv
Test: Bacteriostasis experiment: MIC in 96-well plate, two-fold dilution method
Type: cell-based, Mycobacterium tuberculosis
Details: for MIC: Mycobacterium tuberculosis, ATCC 27294 / H37Rv, 240 h, read-out: Inhibitory activity against Mycobacterium tuberculosis, MIC, MTB H37Rv; for anti-mycobacterium tuberculosis MIC compared with the positive control drug INH: MTB H37Rv, statement on Table 1 data
[1] = MTB H37Rv (ATCC 27294), 7H9 medium, 37° C., about 10 days

| Compound | MIC [1] | also measured |
| --- | --- | --- |
| CCCSc1nc2c(c(=O)[nH]1)C(c1ccccc1)CC(=O)N2 (stereo not drawn) [LSL-10-05, 2-propylmercapto-5-phenyl-5,6-dihydropyrido[2,3-d]pyrimidin-4,7(3H,8H)-dione] | 8 µg/mL (≈ 25.4 µM) | – |
| CCCSc1nc2c(c(=O)[nH]1)C(c1ccc(C)cc1)CC(=O)N2 (stereo not drawn) [LSL-9-37, 2-propylmercapto-5-(4-methylphenyl)-5,6-dihydropyrido[2,3-d]pyrimidin-4,7(3H,8H)-dione] | 2 µg/mL (≈ 6.07 µM) | – |
| CCCSc1nc2c(c(=O)[nH]1)C(c1ccc(SC)cc1)CC(=O)N2 (stereo not drawn) [LSL-11-21, 2-propylmercapto-5-(4-methylthiophenyl)-5,6-dihydropyrido[2,3-d]pyrimidin-4,7(3H,8H)-dione] | 0.5 µg/mL (≈ 1.38 µM) | anti-mycobacterium tuberculosis MIC compared with the positive control drug INH: equivalent to that of the positive control drug INH |
| CCCSc1nc2c(c(=O)[nH]1)C(c1ccc(C#N)cc1)CC(=O)N2 (stereo not drawn) [LSL-10-01, 2-propylmercapto-5-(4-cyanophenyl)-5,6-dihydropyrido[2,3-d]pyrimidin-4,7(3H,8H)-dione] | 16 µg/mL (≈ 47 µM) | – |
| CCCSc1nc2c(c(=O)[nH]1)C(c1ccc(Cl)c(N)c1)CC(=O)N2 (stereo not drawn) [LSL-9-43, 2-propylmercapto-5-(3-amino-4-chlorophenyl)-5,6-dihydropyrido[2,3-d]pyrimidin-4,7(3H,8H)-dione] | 4 µg/mL (≈ 11 µM) | – |
| CCCSc1nc2c(c(=O)[nH]1)C(c1ccc(OC)c(O)c1O)CC(=O)N2 (stereo not drawn) [LSL-9-23, 2-propylmercapto-5-(2,3-dihydroxy-4-methoxyphenyl)-5,6-dihydropyrido[2,3-d]pyrimidin-4,7(3H,8H)-dione] | 64 µg/mL (≈ 170 µM) | – |
| CCCSc1nc2nccc(-c3ccc(OC)cc3)c2c(=O)[nH]1 [LSL-11-02, 2-propylmercapto-5-(4-methoxyphenyl)-pyrido[2,3-d]pyrimidin-4(3H)-one] | 0.5 µg/mL (≈ 1.53 µM) | anti-mycobacterium tuberculosis MIC compared with the positive control drug INH: equivalent to that of the positive control drug INH |
| CCCCCCCOc1ccc(C2CC(=O)Nc3nc(SCCC)[nH]c(=O)c32)cc1 (stereo not drawn) [LSL-11-39, 2-propylmercapto-5-(4-heptoxyphenyl)-5,6-dihydropyrido[2,3-d]pyrimidin-4,7(3H,8H)-dione] | – | anti-mycobacterium tuberculosis MIC compared with the positive control drug INH: equivalent to that of the positive control drug INH; MIC: 0.625 µg/mL (≈ 1.45 µM) |
| CCCSc1nc2c(c(=O)[nH]1)C(c1ccc(N3CCCCC3)cc1)CC(=O)N2 (stereo not drawn) [LSL-10-48, 2-propylmercapto-5-(4-(piperidin-1-yl)phenyl)-5,6-dihydropyrido[2,3-d]pyrimidin-4,7(3H,8H)-dione] | 2 µg/mL (≈ 5.02 µM) | – |
| CCCSc1nc2nccc(-c3ccc4ncccc4c3)c2c(=O)[nH]1 [LSL-11-08, 2-propylmercapto-5-(quinolin-6-yl)-pyrido[2,3-d]pyrimidin-4(3H)-one] | 0.25 µg/mL (≈ 0.718 µM) | anti-mycobacterium tuberculosis MIC compared with the positive control drug INH: equivalent to that of the positive control drug INH |
| CCCSc1nc2c(c(=O)[nH]1)C(c1cccc(C#N)c1)CC(=O)N2 (stereo not drawn) [LSL-10-02, 2-propylmercapto-5-(3-cyanophenyl)-5,6-dihydropyrido[2,3-d]pyrimidin-4,7(3H,8H)-dione] | 6 µg/mL (≈ 17.6 µM) | – |
| CCCSc1nc2c(c(=O)[nH]1)C(c1ccc(OC)cc1O)CC(=O)N2 (stereo not drawn) [LSL-9-02, 2-propylmercapto-5-(2-hydroxy-4-methoxyphenyl)-5,6-dihydropyrido[2,3-d]pyrimidin-4,7(3H,8H)-dione] | 0.5 µg/mL (≈ 1.38 µM) | anti-mycobacterium tuberculosis MIC compared with the positive control drug INH: equivalent to that of the positive control drug INH |
| CCCSc1nc2c(c(=O)[nH]1)C(c1ccc(I)cc1)CC(=O)N2 (stereo not drawn) [LSL-9-19, 2-propylmercapto-5-(4-iodophenyl)-5,6-dihydropyrido[2,3-d]pyrimidin-4,7(3H,8H)-dione] | > 64 µg/mL | – |
| CCCSc1nc2c(c(=O)[nH]1)C(c1ccc3ncccc3c1)CC(=O)N2 (stereo not drawn) [LSL-9-36, 2-propylmercapto-5-(quinolin-6-yl)-5,6-dihydropyrido[2,3-d]pyrimidin-4,7(3H,8H)-dione] | 0.125 µg/mL (≈ 0.341 µM) | anti-mycobacterium tuberculosis MIC compared with the positive control drug INH: equivalent to that of the positive control drug INH |
| CCCSc1nc2c(c(=O)[nH]1)C(c1ccc(O)c(O)c1)CC(=O)N2 (stereo not drawn) [LSL-7-42, 2-propylmercapto-5-(3,4-dihydroxyphenyl)-5,6-dihydropyrido[2,3-d]pyrimidin-4,7(3H,8H)-dione] | 32 µg/mL (≈ 92.1 µM) | – |
| CCCSc1nc2c(c(=O)[nH]1)C(c1cccc3ncccc13)CC(=O)N2 (stereo not drawn) [LSL-10-07, 2-propylmercapto-5-(quinolin-5-yl)-5,6-dihydropyrido[2,3-d]pyrimidin-4,7(3H,8H)-dione] | 16 µg/mL (≈ 43.7 µM) | – |
| CCCSc1nc2c(c(=O)[nH]1)C(c1ccc(OCC)cc1)CC(=O)N2 (stereo not drawn) [LSL-9-39, 2-propylmercapto-5-(4-ethoxyphenyl)-5,6-dihydropyrido[2,3-d]pyrimidin-4,7(3H,8H)-dione] | 0.5 µg/mL (≈ 1.39 µM) | anti-mycobacterium tuberculosis MIC compared with the positive control drug INH: equivalent to that of the positive control drug INH |

| Compound | MIC [1] | also measured |
| --- | --- | --- |
| CCCSc1nc2c(c(=O)[nH]1)C(c1ccc(N3CCSCC3)cc1)CC(=O)N2 (stereo not drawn) [LSL-10-50, 2-propylmercapto-5-(4-thiomorpholinophenyl)-5,6-dihydropyrido[2,3-d]pyrimidin-4,7(3H,8H)-dione] | 1 µg/mL (≈ 2.4 µM) | – |
| CSc1nc2c(c(=O)[nH]1)C(c1cccc([N+](=O)[O-])c1)CC(=O)N2 (stereo not drawn) [LSL-9-09, 2-methylmercapto-5-(3-nitrophenyl)-5,6-dihydropyrido[2,3-d]pyrimidin-4,7(3H,8H)-dione] | – | Inhibitory activity against Mycobacterium tuberculosis, MIC, MTB H37Rv [1]: 64 µg/mL |
| CCCOc1ccc(C2CC(=O)Nc3nc(SC)[nH]c(=O)c32)cc1 (stereo not drawn) [LSL-7-36, 2-methylmercapto-5-(4-propoxyphenyl)-5,6-dihydropyrido[2,3-d]pyrimidin-4,7(3H,8H)-dione] | 32 µg/mL (≈ 92.6 µM) | – |
| CCCSc1nc2c(c(=O)[nH]1)C(c1ccc(Sc3ccccc3)cc1)CC(=O)N2 (stereo not drawn) [LSL-11-19, 2-propylmercapto-5-(4-phenylthiophenyl)-5,6-dihydropyrido[2,3-d]pyrimidin-4,7(3H,8H)-dione] | 8 µg/mL (≈ 18.9 µM) | – |
| CCCSc1nc2c(c(=O)[nH]1)C(c1ccc(OC)nc1)CC(=O)N2 (stereo not drawn) [LSL-11-35, 2-propylmercapto-5-(6-methoxypyridin-3-yl)-5,6-dihydropyrido[2,3-d]pyrimidin-4,7(3H,8H)-dione] | 1 µg/mL (≈ 2.89 µM) | – |
| CCCSc1nc2c(c(=O)[nH]1)C(c1cnc3ccccc3c1)CC(=O)N2 (stereo not drawn) [LSL-11-36, 2-propylmercapto-5-(quinolin-3-yl)-5,6-dihydropyrido[2,3-d]pyrimidin-4,7(3H,8H)-dione] | 8 µg/mL (≈ 21.8 µM) | – |
| CCCOc1ccc(C2CC(=O)Nc3nc(SCCC)[nH]c(=O)c32)cc1O (stereo not drawn) [LSL-9-25, 2-propylmercapto-5-(3-hydroxy-4-propoxyphenyl)-5,6-dihydropyrido[2,3-d]pyrimidin-4,7(3H,8H)-dione] | 4 µg/mL (≈ 10.3 µM) | – |
| CCCSc1nc2c(c(=O)[nH]1)C(c1ccoc1)CC(=O)N2 (stereo not drawn) [LSL-11-38, 2-propylmercapto-5-(furan-3-y1)-5,6-dihydropyrido[2,3-d]pyrimidin-4,7(3H,8H)-dione] | – | Inhibitory activity against Mycobacterium tuberculosis, MIC, MTB H37Rv [1]: 1 µg/mL |
| CCCSc1nc2c(c(=O)[nH]1)C(c1ccnc3ccccc13)CC(=O)N2 (stereo not drawn) [LSL-10-06, 2-propylmercapto-5-(quinolin-4-yl)-5,6-dihydropyrido[2,3-d]pyrimidin-4,7(3H,8H)-dione] | 4 µg/mL (≈ 10.9 µM) | – |
| CCCSc1nc2c(c(=O)[nH]1)C(C1CCCC1)CC(=O)N2 (stereo not drawn) [LSL-11-31, 2-propylmercapto-5-cyclopentyl-5,6-dihydropyrido[2,3-d]pyrimidin-4,7(3H,8H)-dione] | 16 µg/mL (≈ 52 µM) | – |
| CCCSc1nc2[nH]c(=O)cc(-c3ccc(OC)cc3)c2c(=O)[nH]1 [LSL-11-09, 2-propylmercapto-5-(4-methoxyphenyl)-pyrido[2,3-d]pyrimidin-4,7(3H,8H)-dione] | 0.25 µg/mL (≈ 0.728 µM) | anti-mycobacterium tuberculosis MIC compared with the positive control drug INH: equivalent to that of the positive control drug INH |
| CSc1nc2c(c(=O)[nH]1)C(c1ccc([N+](=O)[O-])cc1)CC(=O)N2 (stereo not drawn) [LSL-7-49, 2-methylmercapto-5-(4-nitrophenyl)-5,6-dihydropyrido[2,3-d]pyrimidin-4,7(3H,8H)-dione] | 64 µg/mL (≈ 193 µM) | – |
| CCCSc1nc2c(c(=O)[nH]1)C(c1ccc(OC)cc1[N+](=O)[O-])CC(=O)N2 (stereo not drawn) [LSL-9-41, 2-propylmercapto-5-(4-methoxy-2-nitrophenyl)-5,6-dihydropyrido[2,3-d]pyrimidin-4,7(3H,8H)-dione] | 0.125 µg/mL (≈ 0.32 µM) | anti-mycobacterium tuberculosis MIC compared with the positive control drug INH: equivalent to that of the positive control drug INH |
| CCCSc1nc2c(c(=O)[nH]1)C(c1ccc(Oc3ccccc3)cc1)CC(=O)N2 (stereo not drawn) [LSL-9-32, 2-propylmercapto-5-(4-phenoxyphenyl)-5,6-dihydropyrido[2,3-d]pyrimidin-4,7(3H,8H)-dione] | > 64 µg/mL | – |
| CCCSc1nc2c(c(=O)[nH]1)C(c1ccc(F)cc1)CC(=O)N2 (stereo not drawn) [LSL-9-27, 2-propylmercapto-5-(4-fluorophenyl)-5,6-dihydropyrido[2,3-d]pyrimidin-4,7(3H,8H)-dione] | > 64 µg/mL | – |
| CCCSc1nc2c(c(=O)[nH]1)C(c1nc3ccccc3s1)CC(=O)N2 (stereo not drawn) [LSL-11-18, 2-propylmercapto-5-(benzothiazol-2-yl)-5,6-dihydropyrido[2,3-d]pyrimidin-4,7(3H,8H)-dione] | 2 µg/mL (≈ 5.37 µM) | – |
